Reference: ChEMBL document CHEMBL1135773, “Purine and pyrimidine (P2) receptors as drug targets” (J Med Chem, 2002)

Legend:
P2X purinoceptor 3 [1] = biological target: T1, P2X purinoceptor 3 (Homo sapiens, UniProt P56373); experiment: The compound was evaluated for antagonist activity against recombinant human P2X purinoceptor 3 (P2X3 ); format: functional
T1 sequence (P56373 whole entry): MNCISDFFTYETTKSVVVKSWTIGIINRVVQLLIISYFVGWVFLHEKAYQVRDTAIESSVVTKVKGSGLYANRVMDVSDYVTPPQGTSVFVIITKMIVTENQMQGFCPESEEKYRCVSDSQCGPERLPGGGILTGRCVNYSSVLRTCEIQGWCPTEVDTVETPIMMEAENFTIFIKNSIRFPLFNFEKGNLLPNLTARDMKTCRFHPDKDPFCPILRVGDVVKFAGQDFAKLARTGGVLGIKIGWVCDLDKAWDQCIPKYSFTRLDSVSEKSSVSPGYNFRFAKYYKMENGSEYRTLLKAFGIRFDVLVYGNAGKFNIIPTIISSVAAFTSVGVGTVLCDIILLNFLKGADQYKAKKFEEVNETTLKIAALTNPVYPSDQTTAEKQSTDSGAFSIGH

P2X purinoceptor 1 [2] = biological target: T2, P2X purinoceptor 1 (Rattus norvegicus, UniProt P47824); experiment: The compound was evaluated for antagonist activity against recombinant rat P2X purinoceptor 1 (P2X1); format: functional
T2 sequence (P47824 whole entry): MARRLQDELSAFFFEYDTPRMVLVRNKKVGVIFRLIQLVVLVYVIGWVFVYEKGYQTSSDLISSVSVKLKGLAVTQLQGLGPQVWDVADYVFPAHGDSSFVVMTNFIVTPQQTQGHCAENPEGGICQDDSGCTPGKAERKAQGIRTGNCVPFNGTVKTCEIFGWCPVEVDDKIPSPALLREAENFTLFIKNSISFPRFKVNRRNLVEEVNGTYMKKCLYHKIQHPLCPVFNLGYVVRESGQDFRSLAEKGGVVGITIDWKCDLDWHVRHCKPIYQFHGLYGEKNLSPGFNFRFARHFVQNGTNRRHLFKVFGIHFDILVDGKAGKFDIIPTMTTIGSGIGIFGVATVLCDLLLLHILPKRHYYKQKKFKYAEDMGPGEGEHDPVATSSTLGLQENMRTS

P2X purinoceptor 4 [3] = biological target: T3, P2X purinoceptor 4 (Homo sapiens, UniProt Q99571); experiment: Antagonist activity against recombinant human P2X purinoceptor 4 (P2X4); format: functional
T3 sequence (Q99571 whole entry): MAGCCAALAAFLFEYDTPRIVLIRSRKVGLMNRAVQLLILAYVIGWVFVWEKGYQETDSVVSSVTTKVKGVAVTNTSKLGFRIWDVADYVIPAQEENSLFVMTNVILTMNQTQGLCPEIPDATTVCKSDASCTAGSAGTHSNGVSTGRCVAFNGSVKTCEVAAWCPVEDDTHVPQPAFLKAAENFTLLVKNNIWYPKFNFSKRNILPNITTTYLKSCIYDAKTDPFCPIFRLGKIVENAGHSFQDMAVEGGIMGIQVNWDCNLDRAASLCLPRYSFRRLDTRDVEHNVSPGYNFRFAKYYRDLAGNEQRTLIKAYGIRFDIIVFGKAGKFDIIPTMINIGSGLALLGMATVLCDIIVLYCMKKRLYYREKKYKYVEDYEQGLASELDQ

P2X purinoceptor 7 = biological target: T4, P2X purinoceptor 7 (Homo sapiens, UniProt Q99572); experiment: Antagonist activity against recombinant human P2X purinoceptor 7 (P2X7); format: functional
T4 sequence (Q99572 whole entry): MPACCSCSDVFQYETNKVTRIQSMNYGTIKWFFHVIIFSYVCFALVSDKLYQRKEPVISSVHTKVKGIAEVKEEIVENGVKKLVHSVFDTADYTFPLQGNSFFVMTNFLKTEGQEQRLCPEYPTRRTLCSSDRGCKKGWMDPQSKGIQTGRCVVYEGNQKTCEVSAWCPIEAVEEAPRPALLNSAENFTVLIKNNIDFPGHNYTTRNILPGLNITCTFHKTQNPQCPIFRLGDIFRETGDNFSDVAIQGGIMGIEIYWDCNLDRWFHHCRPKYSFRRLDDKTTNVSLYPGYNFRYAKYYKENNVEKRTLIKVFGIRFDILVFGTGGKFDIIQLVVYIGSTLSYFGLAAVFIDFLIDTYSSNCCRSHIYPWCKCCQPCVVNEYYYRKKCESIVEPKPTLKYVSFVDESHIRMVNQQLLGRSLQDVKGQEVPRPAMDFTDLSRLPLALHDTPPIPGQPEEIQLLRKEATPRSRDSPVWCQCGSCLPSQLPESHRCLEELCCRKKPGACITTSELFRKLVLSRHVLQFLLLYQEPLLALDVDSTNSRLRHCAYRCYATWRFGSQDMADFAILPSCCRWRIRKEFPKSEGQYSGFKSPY

P2X purinoceptor 1 [4] = biological target: T5, P2X purinoceptor 1 (Homo sapiens, UniProt P51575); experiment: Antagonist activity against recombinant human P2X purinoceptor 1 (P2X1 ); format: functional
T5 sequence (P51575 whole entry): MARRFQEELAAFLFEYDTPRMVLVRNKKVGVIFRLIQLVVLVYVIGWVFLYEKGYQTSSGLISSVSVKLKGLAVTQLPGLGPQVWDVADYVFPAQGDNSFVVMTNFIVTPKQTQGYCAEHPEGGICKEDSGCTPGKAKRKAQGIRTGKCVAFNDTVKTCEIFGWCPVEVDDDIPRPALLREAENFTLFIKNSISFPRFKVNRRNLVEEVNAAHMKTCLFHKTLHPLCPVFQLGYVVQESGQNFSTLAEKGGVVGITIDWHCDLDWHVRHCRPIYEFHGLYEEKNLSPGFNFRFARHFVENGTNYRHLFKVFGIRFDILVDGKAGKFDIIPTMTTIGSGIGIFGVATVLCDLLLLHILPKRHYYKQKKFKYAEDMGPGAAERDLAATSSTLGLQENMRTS

P2X purinoceptor 2 = biological target: T6, P2X purinoceptor 2 (Rattus norvegicus, UniProt P49653); experiment: Antagonist activity against recombinant rat receptor P2X purinoceptor 2 (P2X2) at 10 uM, expressed in Xenopus oocytes; format: functional, cell-based, Oocyte
T6 sequence (P49653 whole entry): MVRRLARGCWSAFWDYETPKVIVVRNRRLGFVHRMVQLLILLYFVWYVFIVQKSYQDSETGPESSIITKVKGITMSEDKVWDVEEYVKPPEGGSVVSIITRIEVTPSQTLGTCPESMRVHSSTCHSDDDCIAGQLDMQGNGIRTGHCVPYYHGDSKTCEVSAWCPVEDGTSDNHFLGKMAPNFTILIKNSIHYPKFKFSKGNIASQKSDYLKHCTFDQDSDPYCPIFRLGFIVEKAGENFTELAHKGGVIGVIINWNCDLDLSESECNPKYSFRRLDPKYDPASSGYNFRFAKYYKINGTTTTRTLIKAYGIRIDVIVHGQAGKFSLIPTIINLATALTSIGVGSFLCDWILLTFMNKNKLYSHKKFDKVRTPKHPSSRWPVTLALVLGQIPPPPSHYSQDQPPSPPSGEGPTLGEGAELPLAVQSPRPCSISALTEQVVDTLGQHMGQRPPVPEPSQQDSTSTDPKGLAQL

P2X purinoceptor 4 [5] = biological target: T7, P2X purinoceptor 4 (Rattus norvegicus, UniProt P51577); experiment: Antagonist activity against recombinant rat P2X purinoceptor 4 (P2X4) at 30 uM, expressed in Xenopus oocytes; format: functional, cell-based, Oocyte
T7 sequence (P51577 whole entry): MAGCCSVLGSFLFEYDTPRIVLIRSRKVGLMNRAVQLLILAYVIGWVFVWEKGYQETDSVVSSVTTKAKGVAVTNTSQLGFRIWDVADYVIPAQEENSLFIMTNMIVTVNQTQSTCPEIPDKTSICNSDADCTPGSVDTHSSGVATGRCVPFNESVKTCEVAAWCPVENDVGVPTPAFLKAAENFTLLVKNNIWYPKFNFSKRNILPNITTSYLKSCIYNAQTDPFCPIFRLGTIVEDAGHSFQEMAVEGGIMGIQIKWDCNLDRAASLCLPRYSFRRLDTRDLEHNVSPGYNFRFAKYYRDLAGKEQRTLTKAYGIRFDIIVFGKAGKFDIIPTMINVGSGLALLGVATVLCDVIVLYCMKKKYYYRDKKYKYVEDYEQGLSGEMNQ

P2X purinoceptor 5 = biological target: T8, P2X purinoceptor 5 (Rattus norvegicus, UniProt P51578); experiment: Antagonist activity against recombinant rat P2X purinoceptor 5 (P2X5); format: functional
T8 sequence (P51578 whole entry): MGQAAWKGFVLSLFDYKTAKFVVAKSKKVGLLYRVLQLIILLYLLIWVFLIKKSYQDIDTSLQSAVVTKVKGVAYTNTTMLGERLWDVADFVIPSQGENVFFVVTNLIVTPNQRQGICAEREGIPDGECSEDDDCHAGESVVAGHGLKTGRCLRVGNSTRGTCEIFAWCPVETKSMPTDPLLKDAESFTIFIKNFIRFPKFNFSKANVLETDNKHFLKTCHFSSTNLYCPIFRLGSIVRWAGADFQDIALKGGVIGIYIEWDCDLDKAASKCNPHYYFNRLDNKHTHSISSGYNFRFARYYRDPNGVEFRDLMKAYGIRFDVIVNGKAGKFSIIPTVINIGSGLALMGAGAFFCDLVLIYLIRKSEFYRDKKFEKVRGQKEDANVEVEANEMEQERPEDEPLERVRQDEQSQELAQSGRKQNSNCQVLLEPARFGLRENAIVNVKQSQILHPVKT

P2X purinoceptor 6 = P2X purinoceptor 6 (Rattus norvegicus, UniProt P51579); experiment: Antagonist activity against recombinant rat P2X purinoceptor 6 (P2X6 ); format: functional
P2X purinoceptor 3 [6] = biological target: T1, P2X purinoceptor 3; experiment: Antagonist activity against recombinant human P2X purinoceptor 3 (P2X3 ); format: functional
P2Y purinoceptor 12 = P2Y purinoceptor 12 (Rattus norvegicus, UniProt Q9EPX4); experiment: Antagonist activity against phospholipase C coupled rat P2Y purinoceptor 12 (P2Y12); format: functional
P2Y purinoceptor 1 [7] = biological target: P2Y purinoceptor 1 (Meleagris gallopavo, UniProt P49652); experiment: Evaluated for agonist activity against phospholipase C coupled P2Y purinoceptor 1 (P2Y1) of turkey erythrocytes; format: functional
P2Y purinoceptor 2 = P2Y purinoceptor 2 (Homo sapiens, UniProt P41231); experiment: Evaluated for agonist activity against phospholipase C coupled recombinant human P2Y purinoceptor 2 (P2Y2); format: functional
P2Y purinoceptor 11 = biological target: T9, P2Y purinoceptor 11 (Homo sapiens, UniProt Q96G91); experiment: Agonist activity against phospholipase C coupled human P2Y purinoceptor 11 (P2Y11); format: functional
T9 sequence (Q96G91 whole entry): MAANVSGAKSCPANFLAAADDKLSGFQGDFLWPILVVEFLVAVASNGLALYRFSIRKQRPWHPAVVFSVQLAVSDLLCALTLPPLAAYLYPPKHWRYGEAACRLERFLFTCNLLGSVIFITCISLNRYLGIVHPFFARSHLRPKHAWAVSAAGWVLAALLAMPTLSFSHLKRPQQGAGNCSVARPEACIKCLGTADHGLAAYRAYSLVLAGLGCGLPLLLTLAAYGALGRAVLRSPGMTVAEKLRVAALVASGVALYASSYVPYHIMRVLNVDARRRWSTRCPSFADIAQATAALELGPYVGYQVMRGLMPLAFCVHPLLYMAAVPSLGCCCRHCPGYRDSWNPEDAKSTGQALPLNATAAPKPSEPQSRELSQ

P2Y purinoceptor 4 = P2Y purinoceptor 4 (Rattus norvegicus, UniProt O35811); experiment: The compound was evaluated for antagonist activity against phospholipase C coupled recombinant rat P2Y purinoceptor 4 (P2Y4); format: functional
P2Y purinoceptor 6 = P2Y purinoceptor 6 (Homo sapiens, UniProt Q15077); experiment: The compound was evaluated for agonist activity against phospholipase C coupled recombinant human P2Y purinoceptor 6 (P2Y6); format: functional
P2Y purinoceptor 1 [8] = biological target: P2Y purinoceptor 1 (Homo sapiens, UniProt P47900); experiment: Evaluated for agonist activity against phospholipase C coupled P2Y purinoceptor 1 (P2Y1) of human erythrocytes; format: functional
Sequence of P2Y purinoceptor 1 (Homo sapiens, UniProt P47900) (P47900 whole entry): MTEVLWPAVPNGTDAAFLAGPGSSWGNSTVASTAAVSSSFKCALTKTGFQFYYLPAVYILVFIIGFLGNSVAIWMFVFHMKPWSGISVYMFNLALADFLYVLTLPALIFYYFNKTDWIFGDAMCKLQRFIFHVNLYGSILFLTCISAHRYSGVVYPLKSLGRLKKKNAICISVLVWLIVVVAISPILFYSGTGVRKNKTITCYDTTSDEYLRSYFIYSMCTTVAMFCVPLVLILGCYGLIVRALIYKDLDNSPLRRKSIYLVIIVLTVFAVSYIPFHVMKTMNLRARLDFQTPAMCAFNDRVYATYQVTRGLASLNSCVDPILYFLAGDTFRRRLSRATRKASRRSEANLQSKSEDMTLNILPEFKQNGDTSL

Sequence of P2Y purinoceptor 2 (P41231 whole entry): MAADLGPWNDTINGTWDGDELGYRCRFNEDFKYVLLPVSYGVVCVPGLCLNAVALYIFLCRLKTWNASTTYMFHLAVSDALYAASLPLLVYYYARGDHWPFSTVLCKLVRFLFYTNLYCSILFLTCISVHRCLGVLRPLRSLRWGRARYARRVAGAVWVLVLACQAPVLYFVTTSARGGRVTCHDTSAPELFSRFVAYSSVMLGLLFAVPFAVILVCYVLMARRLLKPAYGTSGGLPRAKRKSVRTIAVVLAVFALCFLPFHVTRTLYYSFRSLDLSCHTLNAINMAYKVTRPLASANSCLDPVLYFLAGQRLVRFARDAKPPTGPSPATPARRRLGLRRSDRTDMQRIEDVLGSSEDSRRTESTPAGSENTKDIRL
Sequence of P2X purinoceptor 6 (P51579 whole entry): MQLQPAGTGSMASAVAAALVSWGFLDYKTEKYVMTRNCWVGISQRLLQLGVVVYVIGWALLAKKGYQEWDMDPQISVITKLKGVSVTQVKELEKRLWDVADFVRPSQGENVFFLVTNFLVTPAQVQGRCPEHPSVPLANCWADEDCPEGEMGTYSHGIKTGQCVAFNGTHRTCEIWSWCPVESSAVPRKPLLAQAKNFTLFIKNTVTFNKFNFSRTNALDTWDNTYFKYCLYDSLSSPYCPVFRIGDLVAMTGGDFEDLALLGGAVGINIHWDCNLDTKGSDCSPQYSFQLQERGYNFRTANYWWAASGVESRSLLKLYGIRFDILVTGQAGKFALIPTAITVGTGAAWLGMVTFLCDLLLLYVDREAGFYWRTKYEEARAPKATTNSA
Sequence of P2Y purinoceptor 1 (Meleagris gallopavo, UniProt P49652) (P49652 whole entry): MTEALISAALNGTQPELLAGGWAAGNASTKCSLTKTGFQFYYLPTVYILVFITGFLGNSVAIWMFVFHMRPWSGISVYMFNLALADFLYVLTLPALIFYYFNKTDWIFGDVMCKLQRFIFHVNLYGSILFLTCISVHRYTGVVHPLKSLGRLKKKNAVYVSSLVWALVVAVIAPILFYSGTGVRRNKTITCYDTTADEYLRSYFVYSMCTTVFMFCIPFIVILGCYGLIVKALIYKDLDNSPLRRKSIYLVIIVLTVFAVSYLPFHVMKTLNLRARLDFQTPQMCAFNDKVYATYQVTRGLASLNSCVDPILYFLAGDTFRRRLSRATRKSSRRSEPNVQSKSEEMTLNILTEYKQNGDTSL
Sequence of P2Y purinoceptor 12 (Q9EPX4 whole entry): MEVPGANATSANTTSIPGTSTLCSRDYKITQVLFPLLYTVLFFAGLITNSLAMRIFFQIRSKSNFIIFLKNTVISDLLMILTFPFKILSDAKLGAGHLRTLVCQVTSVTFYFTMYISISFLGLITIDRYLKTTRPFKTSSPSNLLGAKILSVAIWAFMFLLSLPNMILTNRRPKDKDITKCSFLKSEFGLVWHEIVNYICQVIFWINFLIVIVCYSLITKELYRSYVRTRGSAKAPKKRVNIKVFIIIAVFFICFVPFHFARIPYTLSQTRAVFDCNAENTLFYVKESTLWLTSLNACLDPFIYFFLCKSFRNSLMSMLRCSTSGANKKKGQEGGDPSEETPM
Sequence of P2Y purinoceptor 6 (Q15077 whole entry): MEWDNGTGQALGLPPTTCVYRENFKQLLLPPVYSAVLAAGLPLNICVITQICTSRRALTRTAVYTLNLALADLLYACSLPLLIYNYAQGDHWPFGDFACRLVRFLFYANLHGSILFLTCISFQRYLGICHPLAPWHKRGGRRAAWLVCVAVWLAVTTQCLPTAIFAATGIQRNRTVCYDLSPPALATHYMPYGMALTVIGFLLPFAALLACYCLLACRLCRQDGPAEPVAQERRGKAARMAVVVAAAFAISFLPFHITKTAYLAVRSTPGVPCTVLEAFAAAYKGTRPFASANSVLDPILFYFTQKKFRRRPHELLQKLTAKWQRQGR
Sequence of P2Y purinoceptor 4 (O35811 whole entry): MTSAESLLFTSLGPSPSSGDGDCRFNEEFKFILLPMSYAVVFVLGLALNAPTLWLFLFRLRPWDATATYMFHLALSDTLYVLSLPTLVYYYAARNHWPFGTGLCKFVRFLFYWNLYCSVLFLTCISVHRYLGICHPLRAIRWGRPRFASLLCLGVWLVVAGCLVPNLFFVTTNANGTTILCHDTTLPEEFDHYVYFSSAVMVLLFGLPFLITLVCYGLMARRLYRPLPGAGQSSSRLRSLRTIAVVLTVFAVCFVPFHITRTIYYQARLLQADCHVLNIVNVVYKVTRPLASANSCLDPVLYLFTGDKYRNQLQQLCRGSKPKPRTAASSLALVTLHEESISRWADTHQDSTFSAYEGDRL

Question: What does the source list for `Cc1nc(/N=N/c2cc(S(=O)(=O)O)ccc2S(=O)(=O)O)c(COP(=O)(O)O)c(C=O)c1O` [ISOPPADS]?
Answer: IC50 (P2X purinoceptor 3 [1]): 0.084 µM; EC50 (P2X purinoceptor 1 [2]): 0.043 µM

Question: Which results are given for `CN([C@@H](Cc1ccc(OS(=O)(=O)c2cccc3cnccc23)cc1)C(=O)N1CCN(c2ccccc2)CC1)S(=O)(=O)c1cccc2cnccc12`?
Answer: EC50 (P2X purinoceptor 4 [3]): 100 µM; EC50 (P2X purinoceptor 7): 0.034 µM

Question: With `Nc1ncnc2c1ncn2[C@@H]1O[C@H](COP(=O)(O)CP(=O)(O)OP(=O)(O)O)[C@@H](O)[C@H]1O` [DIPHOSPHOMETHYLPHOSPHONIC ACID ADENOSYL ESTER] as the compound, how does the EC50 (P2X purinoceptor 1 [4]) read?
Answer: The EC50 was 0.2 µM.

Question: What about the EC50 (P2X purinoceptor 2) of the same compound?
Answer: The EC50 was 100 µM.

Question: And the EC50 (P2X purinoceptor 4 [5])?
Answer: The EC50 was 33 µM.

Question: And the EC50 (P2X purinoceptor 5)?
Answer: The EC50 was > 7 µM.

Question: What about the EC50 (P2X purinoceptor 6) of the same compound?
Answer: The EC50 was > 8 µM.

Question: And the EC50 (P2X purinoceptor 3 [6])?
Answer: The EC50 was 0.74 µM.

Question: What about the EC50 (P2Y purinoceptor 12) of the same compound?
Answer: Its EC50 is > 100 µM.

Question: What about the EC50 (P2Y purinoceptor 1 [7]) of the same compound?
Answer: The EC50 was > 100 µM.

Question: What about the EC50 (P2X purinoceptor 7) of the same compound?
Answer: The EC50 was > 100 µM.

Question: Which results are given for `O=c1ccn([C@@H]2O[C@H](COP(=O)(O)OP(=O)(O)OP(=O)(O)O)[C@@H](O)[C@H]2O)c(=O)[nH]1` [URIDINE TRIPHOSPHATE]?
Answer: EC50 (P2Y purinoceptor 2): 0.14 µM; EC50 (P2Y purinoceptor 11): > 100 µM; EC50 (P2Y purinoceptor 4): 2.6 µM; EC50 (P2Y purinoceptor 6): 6 µM; EC50 (P2Y purinoceptor 1 [8]): > 100 µM
